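Briefly, cells in 96-well plates were exposed to five compound concentrations for 48 h, and endpoints were estimated by linear interpolation. Abbreviation: GI50, concentration required for 50% inhibition of growth.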 Calls of active or inactive are those of the source. No stated cut-off is given here; in the data, active = GI50 up to about 1.1 µM and inactive = higher.
Legend:
Test in all cases: inhibition of tumour cell growth, NCI panel, 48 h
A498 = tested on: A498
HCC 2998 = tested on: HCC 2998
NCI/ADR-RES = tested on: NCI/ADR-RES
MCF7 = tested on: MCF7
NCI-H522 = tested on: NCI-H522
Hs-578T = tested on: Hs-578T
786-0 = tested on: 786-0
CAKI-1 = tested on: CAKI-1
MDA-MB-231 = tested on: MDA-MB-231
RXF 393 = tested on: RXF 393
PC-3 = tested on: PC-3
SR = tested on: SR
SF-539 = tested on: SF-539

Measured: GI50

CC(C)C(=O)Cc1ccc2ccccc2n1
inactive: A498 > 100 µM | HCC 2998 > 100 µM | NCI/ADR-RES > 100 µM | MCF7 > 100 µM | NCI-H522 50.5 µM | Hs-578T > 100 µM | 786-0 > 100 µM | CAKI-1 > 100 µM | MDA-MB-231 > 100 µM | RXF 393 > 100 µM | PC-3 89.7 µM

COc1cccc(C2c3cc4c(cc3OC(N3CCOCC3)C2C)OCO4)c1 (configuration not stated)
inactive: NCI/ADR-RES 13.7 µM | MCF7 6.61 µM | NCI-H522 8.24 µM | Hs-578T 13.9 µM | SR 9.1 µM | MDA-MB-231 35.1 µM | PC-3 5.53 µM

COc1ccc(-c2cs/c(=N\c3ccccc3)n2CCCN(C)C)cc1
inactive: A498 22 µM | HCC 2998 16.3 µM | NCI/ADR-RES 15.2 µM | SR 22.8 µM | CAKI-1 71.9 µM | MDA-MB-231 44.2 µM | RXF 393 12.2 µM | PC-3 12.6 µM | SF-539 13.6 µM

O=c1cc(O)c1=O
inactive: A498 > 100 µM | HCC 2998 > 100 µM | MCF7 > 100 µM | NCI-H522 > 100 µM | Hs-578T > 100 µM | SR > 100 µM | CAKI-1 > 100 µM | MDA-MB-231 > 10 µM | PC-3 > 100 µM | SF-539 > 100 µM

CSc1sc(C)cc1-c1nsc(=O)o1
inactive: A498 > 100 µM | HCC 2998 > 100 µM | NCI/ADR-RES > 100 µM | MCF7 > 100 µM | NCI-H522 > 100 µM | Hs-578T > 100 µM | SR > 100 µM | 786-0 > 100 µM | CAKI-1 > 100 µM | RXF 393 > 100 µM | PC-3 > 100 µM

CCOC(=O)c1sc2nc(SC)nc(N3CCCCC3)c2c1N
inactive: A498 > 100 µM | HCC 2998 > 100 µM | NCI/ADR-RES > 100 µM | NCI-H522 > 100 µM | Hs-578T > 100 µM | SR > 100 µM | 786-0 > 100 µM | CAKI-1 > 100 µM | MDA-MB-231 > 100 µM | RXF 393 > 100 µM | PC-3 > 100 µM

CCc1ncc(C(C)(O)c2ccccc2)n1Cc1ccccc1 (configuration not stated)
inactive: NCI/ADR-RES 37.7 µM | MCF7 67.8 µM | NCI-H522 42.1 µM | Hs-578T 33.4 µM | SR 14.8 µM | CAKI-1 35.4 µM | MDA-MB-231 29.3 µM | RXF 393 > 100 µM | PC-3 43.4 µM | SF-539 37.2 µM

CC(C)CCNc1ncnc2[nH]ncc12
inactive: A498 45 µM | HCC 2998 > 100 µM | NCI/ADR-RES 77.4 µM | MCF7 72.8 µM | NCI-H522 59.4 µM | Hs-578T 46.7 µM | 786-0 > 100 µM | CAKI-1 98.6 µM | MDA-MB-231 > 100 µM | RXF 393 > 100 µM | PC-3 > 100 µM

CC(C)C1=C(O)C(=O)C2=C(C1=O)C(OC=O)C(O)C1C(C)(C)CCCC21C (configuration not stated)
inactive: A498 14.8 µM | HCC 2998 6.82 µM | MCF7 11.4 µM | NCI-H522 10.8 µM | Hs-578T 8.51 µM | SR 3 µM | 786-0 4.09 µM | CAKI-1 4.04 µM | MDA-MB-231 5.79 µM | RXF 393 6.82 µM | PC-3 11.2 µM | SF-539 13.7 µM

OC1(c2ccc(Cl)cc2)c2ccc3ccccc3c2C2=N[C@H]3CCCC[C@@H]3N21 (some centres not stated)
inactive: A498 20.3 µM | NCI/ADR-RES 1.63 µM | MCF7 8.45 µM | NCI-H522 10.3 µM | Hs-578T 1.19 µM | CAKI-1 12.2 µM | MDA-MB-231 18 µM | RXF 393 3.5 µM | PC-3 6.32 µM | SF-539 5.71 µM

O=c1c2cc(I)ccc2nc(-c2cccs2)n1O
inactive: HCC 2998 30 µM | NCI/ADR-RES 41.1 µM | MCF7 50 µM | NCI-H522 37.5 µM | SR 33.8 µM | 786-0 55.2 µM | CAKI-1 28.8 µM | RXF 393 > 100 µM | PC-3 52.1 µM | SF-539 44.6 µM

— ChEMBL document CHEMBL1201862, “PubChem BioAssay data set” (2004)
